Paper PMC9226319, “Peripherally restricted transthyretin-based delivery system for probes and therapeutics avoiding opioid-related side effects” (Nature Communications, 2022)
Where “and” joins values, the source holds several entries; their conditions need not be identical. Identical values can stand only once. Like-named read-outs stand apart in the source and are kept apart here.

Columns and labels:
[1] = rat; for plasma concentration: individual animals
[2] = molecular target: T1, delta-opioid receptor (human) (Homo sapiens, UniProt P41143); assay: Human delta-opioid receptor (agonist radioligand [3H]-DADLE) binding assay; conditions: for % Inhibition of Control Specific Binding: delta-opioid receptor binding, replicates 1st/2nd
T1 construct: Eurofins Cerep (France)

[3] = Serum stability assay of AG10-L2-Nal, rat serum; assay type: in vitro ADME; conditions: 100 µM
Experimental: AG10-L2-Nal (100 μM) was incubated in sera, and the concentration remaining in respective media was determined at 0 and 48 h using HPLC. Bar graphs represent the mean of % compound remaining ± s.d. […] The plasma, brain tissue, and CSF were collected at 30 min after dosing. The ratio of the brain (ng/g) versus plasma concentration (ng/mL) is expressed as the percentage brain to plasma ratio. The ratio of the CSF (ng/mL) versus plasma concentration (ng/mL) is expressed as the percentage CSF to plasma ratio. Bar graphs show the respective mean (±s.d.) (n = 3 for each group). […] The concentration of the test compounds in plasma was determined at different time points and expressed as means ± s.d. of three biological replicates. Source data are provided as a Source Data file. […]
(Taiwan). The experimental procedure was performed as reported12. […]
Serum stability assay of AG10-L2-Nal. […] 100 μL samples were analyzed at 0 h, 24 h, and 48 h time intervals. […] The supernatant was analyzed using Waters™ XBridge C18 column (4.6x250 mm, 5μm) on Waters e2695 separations module HPLC system connected to a Waters 2998 photodiode array detector operating between the UV ranges of 200-400 nm. […]

[4] = molecular target: TTR in human serum (Homo sapiens, UniProt P02766); assay: TTR serum fluorescent probe exclusion (FPE) selectivity assay; assay type: binding; conditions: ligand 10 µM; for %FPE probe fluorescence: human serum, replicates
[5] = molecular target: human mu-opioid receptors (Homo sapiens, UniProt P35372); assay: biochemical; assay type: binding
[6] = in vivo; conditions: male, Sprague Dawley, rat, iv, percentage CSF to plasma ratio

human mu-opioid receptors, sequence (P35372 whole entry): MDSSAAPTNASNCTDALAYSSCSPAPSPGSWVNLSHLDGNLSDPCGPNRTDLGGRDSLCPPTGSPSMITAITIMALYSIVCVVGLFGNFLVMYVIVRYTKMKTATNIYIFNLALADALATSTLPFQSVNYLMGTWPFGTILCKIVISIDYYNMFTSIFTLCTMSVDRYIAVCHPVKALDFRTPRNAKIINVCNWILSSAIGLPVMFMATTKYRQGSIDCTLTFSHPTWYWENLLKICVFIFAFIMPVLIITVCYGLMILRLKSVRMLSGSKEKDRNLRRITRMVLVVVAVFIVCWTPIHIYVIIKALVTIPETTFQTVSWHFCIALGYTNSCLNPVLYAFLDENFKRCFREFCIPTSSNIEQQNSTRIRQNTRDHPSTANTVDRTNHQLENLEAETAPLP
T1 sequence (P41143 whole entry): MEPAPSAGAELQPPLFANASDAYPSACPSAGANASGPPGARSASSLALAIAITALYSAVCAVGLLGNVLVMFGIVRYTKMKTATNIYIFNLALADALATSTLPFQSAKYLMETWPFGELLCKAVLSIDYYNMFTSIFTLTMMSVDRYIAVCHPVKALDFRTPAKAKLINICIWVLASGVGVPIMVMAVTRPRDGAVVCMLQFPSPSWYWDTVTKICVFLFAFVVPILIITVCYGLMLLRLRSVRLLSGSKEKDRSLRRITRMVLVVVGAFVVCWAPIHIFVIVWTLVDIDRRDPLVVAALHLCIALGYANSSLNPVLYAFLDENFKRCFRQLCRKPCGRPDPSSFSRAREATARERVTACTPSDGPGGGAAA

C=CCN1CC[C@]23c4c5ccc(O)c4O[C@H]2[C@@H](OCc2cn(CCNCCCCCCOc4cc(OCCCc6c(C)n[nH]c6C)cc(C(=O)O)c4)nn2)CC[C@@]3(O)[C@H]1C5 [AG10-L2-Nal]
fold higher AUCinf than naloxegol ([1]; IV 4.84 µmol/kg): ~23 fold | fold higher AUCinf than naloxone ([1]; IV 4.84 µmol/kg): ~12 fold | fold increase in half-life compared to naloxegol ([1]; IV 4.84 µmol/kg): 3.5 fold | fold increase in half-life compared to naloxone ([1]; IV 4.84 µmol/kg): 7 fold | plasma concentration ([1]; IV 4.84 µmol/kg, 0.03 h): 57.2639 µM and 57.5061 µM | plasma concentration ([1]; IV 4.84 µmol/kg, 0.5 h): 2.9419 µM and 1.3196 µM and 2.2397 µM | plasma concentration ([1]; IV 4.84 µmol/kg, 1 h): 0.2966 µM and 0.4419 µM | plasma concentration ([1]; IV 4.84 µmol/kg, 2 h): 0.155 µM and 0.1816 µM | plasma concentration ([1]; IV 4.84 µmol/kg, 4 h): 0.0929 µM and 0.0286 µM and 0.1259 µM | plasma concentration ([1]; IV 4.84 µmol/kg, 6 h): 0.0752 µM and 0.037 µM and 0.0516 µM | plasma concentration ([1]; IV 4.84 µmol/kg, 8 h): 0.023 µM and 0.0562 µM and 0.0257 µM | plasma concentration ([1]; IV 4.84 µmol/kg, 12 h): 0.0144 µM and 0.012 µM | plasma concentration ([1]; IV 4.84 µmol/kg, 24 h): 0.0034 µM and 0.0072 µM and 0.0027 µM | k ([1]; single IV bolus 4.84 µmol/kg): 0.12 ± 0.02 h⁻¹ | Ki ([2]; [3H]-DADLE displacement, read-out: binding affinity to delta-opioid receptor (Ki)): 5.5 nM | % Inhibition of Control Specific Binding ([2]; 1.0E-07 M): 91.6% and 94.2% | % Inhibition of Control Specific Binding ([2]; 1.0E-08 M): 53.9% and 52.4% | % Inhibition of Control Specific Binding ([2]; 1.0E-09 M): 14.6% and 12.2% | % Inhibition of Control Specific Binding ([2]; 1.0E-10 M): 2.7% and 9.1% | % Inhibition of Control Specific Binding ([2]; 5.0E-08 M): 83.7% and 87.4% | % compound remaining in rat serum ([3]; 0 h, replicates): 101.22% and 98.78% and 100.03% | % compound remaining in rat serum ([3]; 37 °C, 48 h, table replicates): 100% and 99.06% and 98.97% and 99.95% | % TTR occupancy in human serum ([4]; FPE probe 3.6 µM, 3 h reading relative to probe alone, text mean ± s.d., table replicates): 62.5 ± 1.1% and 62.04% and 62.07% and 64.05% and 61.92% | %FPE probe fluorescence ([4]; time 0.000 h): 0.000% | %FPE probe fluorescence ([4]; time 0.083 h): 0.018% and 0.756% and -2.232% and -2.399% | %FPE probe fluorescence ([4]; time 0.250 h): -1.158% and 2.209% and 1.458% and -0.885% | %FPE probe fluorescence ([4]; time 0.500 h): 4.241% and 3.528% and 5.089% and 2.218% | %FPE probe fluorescence ([4]; time 1.000 h): 6.503% and 10.611% and 13.590% and 14.148% | %FPE probe fluorescence ([4]; time 1.250 h): 9.009% and 13.005% and 15.989% and 16.127% | %FPE probe fluorescence ([4]; time 1.500 h): 13.314% and 18.863% and 18.262% and 17.288% | %FPE probe fluorescence ([4]; time 1.750 h): 17.598% and 21.285% and 22.377% and 21.648% | %FPE probe fluorescence ([4]; time 2.000 h): 21.919% and 25.680% and 23.861% and 25.075% | %FPE probe fluorescence ([4]; time 2.250 h): 26.163% and 28.876% and 26.928% and 27.418% | %FPE probe fluorescence ([4]; time 2.500 h): 26.877% and 32.466% and 29.919% and 30.633% | %FPE probe fluorescence ([4]; time 2.750 h): 34.129% and 34.947% and 31.920% and 33.937% | %FPE probe fluorescence ([4]; time 3.000 h): 37.964% and 37.926% and 35.954% and 38.083% | %FPE probe fluorescence ([4]; time 3.500 h): 44.335% and 44.718% and 41.995% and 45.800% | %FPE probe fluorescence ([4]; time 3.750 h): 47.041% and 46.124% and 44.395% and 46.344% | %FPE probe fluorescence ([4]; time 4.000 h): 49.775% and 49.574% and 47.863% and 50.648% | %FPE probe fluorescence ([4]; time 4.250 h): 49.252% and 50.428% and 49.751% and 51.967% | %FPE probe fluorescence ([4]; time 4.500 h): 53.631% and 53.865% and 52.939% and 52.730% | %FPE probe fluorescence ([4]; time 4.750 h): 56.220% and 54.908% and 55.174% and 55.874% | %FPE probe fluorescence ([4]; time 5.000 h): 57.139% and 56.055% and 53.820% and 57.315% | %FPE probe fluorescence ([4]; time 5.250 h): 59.200% and 60.014% and 56.004% and 59.143% | %FPE probe fluorescence ([4]; time 5.500 h): 60.336% and 59.246% and 59.233% and 60.795% | %FPE probe fluorescence ([4]; time 5.750 h): 61.971% and 60.994% and 58.022% and 62.173% | %FPE probe fluorescence ([4]; time 6.000 h): 64.344% and 63.419% and 61.650% and 63.934% | % Inhibition of Control Specific Binding [5]: 88.5% | fold better mu-opioid receptor binding affinity than MNTX [5]: 17 fold | fold higher mu-opioid receptor binding affinity than AG10-L1-Nal [5]: 5.7 fold | Ki ([5]; binding affinity to mu-opioid receptor (Ki)): 0.35 nM | Ki ([5]; binding affinity to mu-opioid receptor (Ki) in the presence of TTR): 1.3 nM | Kp [6]: 0.01
